# Calls of active or inactive are those of the source.
# Experiments:
# [1] = molecular target: Glyceraldehyde-3-phosphate dehydrogenase (Homo sapiens, UniProt P04406)
# [2] = molecular target: T1, Alkaline phosphatase, tissue-nonspecific isozyme (Homo sapiens, UniProt P05186); test: potency against alkaline phosphatase TNAP – biochemical, luminescent, dose response, SAR follow-up (AID 1056)
# T1 sequence (P05186 whole entry): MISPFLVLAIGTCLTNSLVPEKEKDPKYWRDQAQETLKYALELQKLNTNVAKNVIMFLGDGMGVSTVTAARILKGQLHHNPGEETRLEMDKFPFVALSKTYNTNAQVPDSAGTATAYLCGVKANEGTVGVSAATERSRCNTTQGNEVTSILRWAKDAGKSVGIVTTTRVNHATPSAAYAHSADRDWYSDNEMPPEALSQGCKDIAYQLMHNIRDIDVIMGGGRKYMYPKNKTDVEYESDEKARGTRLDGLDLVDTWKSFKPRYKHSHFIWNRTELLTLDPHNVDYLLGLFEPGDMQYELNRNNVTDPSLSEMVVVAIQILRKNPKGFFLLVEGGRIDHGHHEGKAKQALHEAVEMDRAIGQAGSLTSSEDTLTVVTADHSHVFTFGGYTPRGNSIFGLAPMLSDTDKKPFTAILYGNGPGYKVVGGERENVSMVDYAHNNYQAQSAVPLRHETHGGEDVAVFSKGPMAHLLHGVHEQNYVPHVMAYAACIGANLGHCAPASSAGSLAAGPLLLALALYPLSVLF
# [3] = molecular target: Peroxisome proliferator-activated receptor gamma/Nuclear receptor coactivator 1 (Homo sapiens, UniProt P37231); test: (§1) TR-FRET dose response biochemical High Throughput Screening assay for agonists of the steroid receptor coactivator 1 (SRC-1) recruitment by the peroxisome proliferator-activated receptor gamma (PPAR gamma): non-selective agonists. [Related pubchem assays (depositor defined):AID1300, AID1808, AID504735, AID631]; type: protein assay
# [4] = molecular target: Peroxisome proliferator-activated receptor gamma/Nuclear receptor coactivator 3 (Homo sapiens, UniProt P37231); test: as §1, with “3 (SRC-3)” for “1 (SRC-1)”, “assays: 1301 (Confirmation screen.), 1048 (Primary screen.)]” for “assays (depositor defined):AID1300, AID1808, AID504735, AID631]”; type: functional
# [5] = molecular target: Peroxisome proliferator-activated receptor gamma/Nuclear receptor coactivator 2 (Homo sapiens, UniProt P37231); test: TR-FRET dose response biochemical High Throughput Screening assay for agonists of the steroid receptor coactivator 2 (SRC-2) recruitment by the peroxisome proliferator-activated receptor gamma (PPAR gamma): non-selective agonists. [Related pubchem assays: 1297, 1032 ]; type: functional
# [6] = molecular target: DNA dC->dU-editing enzyme APOBEC-3A (Homo sapiens, UniProt P31941); test: A3A deaminase inhibition for selectivity – biochemical, dose response (AID 504722); type: functional
# [7] = molecular target: DNA dC->dU-editing enzyme APOBEC-3G (Homo sapiens, UniProt Q9HC16); test: Dose Response confirmation of small molecule APOBEC3G DNA Deaminase Inhibitors via a fluorescence-based single-stranded DNA deaminase assay. [Related pubchem assays (depositor defined):AID493012, AID493028]; type: functional
# [8] = molecular target: T2, Polyadenylate-binding protein 1 (Homo sapiens, UniProt P11940); test: MLLE binding blockers, Cy5 peptide tracer – biochemical, fluorescence polarization, Cy5-PAM2 peptide, secondary, miRNA deadenylation inhibitor project, dose response (AID 602260); type: functional; details: read-out: IC50_Mean
# [9] = molecular target: T2, Polyadenylate-binding protein 1; test: MLLE domain peptide-binding blockers, IC50 – biochemical, fluorescence polarization, FITC-PAM2 peptide, dose response (AID 602259); type: functional; details: read-out: IC50_Mean
# [10] = molecular target: T3, Kappa-type opioid receptor (Homo sapiens, UniProt P41145); type: functional
# [11] = molecular target: Beta-galactosidase (Escherichia coli, UniProt Q8VNN2); type: functional
# [12] = molecular target: T3, Kappa-type opioid receptor; type: functional; remark: listed apart in the source
# [13] = system: H9c2; test: cells; type: functional, cell-based; details: Rattus norvegicus, H9c2, Myocardium;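 note: confirmatory concentration-response retest of ultra-high-throughput screening hits for modulation of myocardial damage; cell death induced by hydrogen peroxide oxidative stress; compound pretreatment for 60 min then peroxide exposure for 2 h; potency is for protecting the cells against peroxide damage rather than for killing them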
# [14] = reduction of Shn3 3'UTR-driven luciferase in osteoblasts – cell-based, Clone20 osteoblasts, firefly luciferase, cherry-picked, dose response (AID 624132); type: functional;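 note: firefly luciferase luminescence from reporter carrying the Shn3 3'UTR in osteoblasts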
# [15] = loss of viability in HepG2 cells – cell-based, CellTiter-Glo, cherry-picked, cytotoxicity control for Shn3 inhibitor project, dose response (AID 624134); type: functional
# [16] = non-specific 3'UTR reporter inhibition in Clone20-Shn3RL – cell-based, Renilla luciferase, cherry-picked, counter-screen for Shn3 inhibitor project, dose response (AID 624133); type: functional
# [17] = viability loss in CEM21 cells – cell-based, CellTiter-Glo luminescence, cherry-picked, cytotoxicity control for viral fusion inhibitor project, dose response (AID 652042); type: functional;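 note: potency for signal decrease meaning cytotoxicity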
# [18] = HIV-1 AD8 envelope cell-cell fusion blockers – cherry-pick, dose response (AID 652062); type: functional, cell-based;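 note: luciferase signal from cell-cell fusion driven by HIV-1 clade B AD8 Env; potency is for inhibitors of fusion seen as a drop in luminescence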
# [19] = molecular target: DNA (cytosine-5)-methyltransferase 1 (Homo sapiens, UniProt P26358); test: inhibition of DNA methylation by DNMT1 – biochemical, fluorescent molecular beacon, confirmation (AID 602386); type: functional
# [20] = molecular target: T4, Ubiquitin-conjugating enzyme E2 N (Homo sapiens, UniProt P61088); type: functional;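 note: Dose-response confirmation in a TR-FRET assay detecting UBC13-driven polyubiquitin chain formation, inhibition measured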
# T4 sequence (P61088 whole entry): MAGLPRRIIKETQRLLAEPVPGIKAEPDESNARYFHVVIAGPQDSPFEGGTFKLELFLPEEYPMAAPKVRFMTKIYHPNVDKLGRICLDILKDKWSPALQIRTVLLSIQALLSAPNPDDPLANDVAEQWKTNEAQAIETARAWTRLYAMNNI
# [21] = molecular target: Major prion protein (Homo sapiens, UniProt P04156); type: functional, cell-based
# [22] = cells
# [23] = molecular target: T5, Short transient receptor potential channel 4 (Mus musculus, UniProt Q9QUQ5); test: block of DAMGO-driven TRPC4 calcium entry – cell-based, HEK293 TRPC4/mu-opioid, Fluo-4 calcium, dose response (AID 434942); type: functional;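 note: potency of inhibitors blocking the TRPC4 calcium response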
# T5 sequence (Q9QUQ5 whole entry): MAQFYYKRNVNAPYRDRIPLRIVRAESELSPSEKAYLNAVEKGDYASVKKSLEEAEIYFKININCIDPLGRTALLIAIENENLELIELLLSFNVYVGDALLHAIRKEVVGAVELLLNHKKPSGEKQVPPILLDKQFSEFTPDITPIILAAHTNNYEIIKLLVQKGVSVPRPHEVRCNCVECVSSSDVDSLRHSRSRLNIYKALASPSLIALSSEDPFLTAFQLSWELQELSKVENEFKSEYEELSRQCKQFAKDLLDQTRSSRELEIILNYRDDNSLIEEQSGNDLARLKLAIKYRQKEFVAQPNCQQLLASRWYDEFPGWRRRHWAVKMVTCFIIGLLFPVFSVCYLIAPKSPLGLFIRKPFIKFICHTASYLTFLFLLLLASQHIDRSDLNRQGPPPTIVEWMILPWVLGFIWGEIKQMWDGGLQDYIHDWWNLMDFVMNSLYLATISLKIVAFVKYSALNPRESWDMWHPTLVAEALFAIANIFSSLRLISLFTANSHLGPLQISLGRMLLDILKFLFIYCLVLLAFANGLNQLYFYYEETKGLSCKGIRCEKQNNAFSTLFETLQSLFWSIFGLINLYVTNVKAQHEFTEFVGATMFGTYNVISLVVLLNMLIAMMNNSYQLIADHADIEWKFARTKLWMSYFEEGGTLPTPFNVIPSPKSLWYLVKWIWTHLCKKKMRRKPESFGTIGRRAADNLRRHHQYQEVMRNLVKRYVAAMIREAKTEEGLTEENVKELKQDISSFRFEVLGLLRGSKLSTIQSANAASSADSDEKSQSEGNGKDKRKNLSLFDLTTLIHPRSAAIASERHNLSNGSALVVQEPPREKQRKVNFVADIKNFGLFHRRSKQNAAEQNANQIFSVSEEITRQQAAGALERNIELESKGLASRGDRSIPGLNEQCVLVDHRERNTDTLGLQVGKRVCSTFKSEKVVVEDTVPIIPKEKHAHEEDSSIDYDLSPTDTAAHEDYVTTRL
# [24] = molecular target: T5, Short transient receptor potential channel 4; test: calcium entry via TRPC4 opening agents – cell-based, HEK293 TRPC4/mu-opioid, Fluo-4 calcium, dose response (AID 434937); type: functional
# [25] = molecular target: T6, Rac GTPase-activating protein 1 (Homo sapiens, UniProt Q9H0H5); test: blockers of MgcRacGAP-driven Rac1 GTP hydrolysis – biochemical, ADP Hunter fluorescence, primary and confirmatory, confirmation (AID 624330); type: functional
# T6 sequence (Q9H0H5 whole entry): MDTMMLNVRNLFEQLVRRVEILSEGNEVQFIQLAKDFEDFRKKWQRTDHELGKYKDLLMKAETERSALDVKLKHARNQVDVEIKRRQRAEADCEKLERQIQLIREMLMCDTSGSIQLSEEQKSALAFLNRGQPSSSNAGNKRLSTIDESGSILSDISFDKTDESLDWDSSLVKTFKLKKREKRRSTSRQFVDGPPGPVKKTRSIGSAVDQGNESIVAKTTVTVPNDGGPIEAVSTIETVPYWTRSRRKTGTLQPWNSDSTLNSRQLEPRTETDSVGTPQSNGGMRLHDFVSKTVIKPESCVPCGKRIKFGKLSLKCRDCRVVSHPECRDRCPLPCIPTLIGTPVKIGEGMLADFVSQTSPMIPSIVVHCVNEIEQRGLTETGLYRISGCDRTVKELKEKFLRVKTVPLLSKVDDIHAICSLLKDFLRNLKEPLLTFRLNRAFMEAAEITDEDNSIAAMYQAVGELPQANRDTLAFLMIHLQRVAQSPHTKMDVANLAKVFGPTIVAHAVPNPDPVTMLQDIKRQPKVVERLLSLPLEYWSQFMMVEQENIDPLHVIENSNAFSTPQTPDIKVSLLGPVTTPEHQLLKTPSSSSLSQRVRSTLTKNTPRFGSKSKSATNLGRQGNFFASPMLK
# [26] = viability of uninfected HEp-2 cells – cell-based, HTS, cytotoxicity control for RSV inhibitor project, dose response (AID 2410); type: functional; details: human respiratory syncytial virus
# [27] = molecular target: T7, Carboxy-terminal domain RNA polymerase II polypeptide A small phosphatase 1 (Homo sapiens, UniProt Q9GZU7); test: CTDSP1 inhibitors, concentration-response, biochemical, absorbance readout, ultra-high-throughput screen actives (AID 540297); type: functional
# T7 sequence (Q9GZU7 whole entry): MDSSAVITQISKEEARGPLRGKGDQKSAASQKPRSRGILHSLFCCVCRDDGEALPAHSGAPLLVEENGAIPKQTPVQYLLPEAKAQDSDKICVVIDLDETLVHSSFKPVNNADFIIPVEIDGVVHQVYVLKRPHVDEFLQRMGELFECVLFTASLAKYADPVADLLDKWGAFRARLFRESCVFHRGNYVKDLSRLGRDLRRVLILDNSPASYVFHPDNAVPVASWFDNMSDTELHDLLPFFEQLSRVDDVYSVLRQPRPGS
# DNA dC->dU-editing enzyme APOBEC-3G, sequence (Q9HC16 whole entry): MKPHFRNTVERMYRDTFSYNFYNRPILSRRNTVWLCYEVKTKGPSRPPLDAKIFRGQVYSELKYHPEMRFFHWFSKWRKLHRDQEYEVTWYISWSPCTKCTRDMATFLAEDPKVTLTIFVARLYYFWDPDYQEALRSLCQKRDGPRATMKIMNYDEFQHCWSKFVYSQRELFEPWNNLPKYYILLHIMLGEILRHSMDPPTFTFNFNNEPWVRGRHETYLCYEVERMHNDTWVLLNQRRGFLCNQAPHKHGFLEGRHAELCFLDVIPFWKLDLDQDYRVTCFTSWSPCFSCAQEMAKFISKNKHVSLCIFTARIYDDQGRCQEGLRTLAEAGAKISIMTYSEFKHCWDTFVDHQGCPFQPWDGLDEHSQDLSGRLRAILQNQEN
# DNA dC->dU-editing enzyme APOBEC-3A, sequence (P31941 whole entry): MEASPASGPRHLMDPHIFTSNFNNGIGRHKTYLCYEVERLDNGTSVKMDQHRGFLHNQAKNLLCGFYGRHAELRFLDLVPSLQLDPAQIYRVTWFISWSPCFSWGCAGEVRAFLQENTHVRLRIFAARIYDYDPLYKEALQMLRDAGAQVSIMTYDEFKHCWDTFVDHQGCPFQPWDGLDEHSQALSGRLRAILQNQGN
# Peroxisome proliferator-activated receptor gamma/Nuclear receptor coactivator 2, sequence (P37231 whole entry): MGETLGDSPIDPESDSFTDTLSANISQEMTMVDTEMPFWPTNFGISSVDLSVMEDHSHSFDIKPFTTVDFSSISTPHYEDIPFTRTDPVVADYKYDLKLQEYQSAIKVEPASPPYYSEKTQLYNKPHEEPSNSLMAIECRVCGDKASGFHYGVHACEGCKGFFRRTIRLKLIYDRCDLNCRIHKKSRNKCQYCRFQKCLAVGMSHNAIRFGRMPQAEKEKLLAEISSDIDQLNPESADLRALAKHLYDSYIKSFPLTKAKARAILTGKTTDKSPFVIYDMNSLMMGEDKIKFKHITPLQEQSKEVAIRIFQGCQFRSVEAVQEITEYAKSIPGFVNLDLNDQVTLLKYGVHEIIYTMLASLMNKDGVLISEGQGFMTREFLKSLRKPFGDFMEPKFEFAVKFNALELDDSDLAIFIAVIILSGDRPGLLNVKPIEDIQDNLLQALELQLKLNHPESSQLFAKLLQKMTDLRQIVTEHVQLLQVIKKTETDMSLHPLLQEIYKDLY
# Peroxisome proliferator-activated receptor gamma/Nuclear receptor coactivator 2, sequence (Q15596 whole entry, further chain): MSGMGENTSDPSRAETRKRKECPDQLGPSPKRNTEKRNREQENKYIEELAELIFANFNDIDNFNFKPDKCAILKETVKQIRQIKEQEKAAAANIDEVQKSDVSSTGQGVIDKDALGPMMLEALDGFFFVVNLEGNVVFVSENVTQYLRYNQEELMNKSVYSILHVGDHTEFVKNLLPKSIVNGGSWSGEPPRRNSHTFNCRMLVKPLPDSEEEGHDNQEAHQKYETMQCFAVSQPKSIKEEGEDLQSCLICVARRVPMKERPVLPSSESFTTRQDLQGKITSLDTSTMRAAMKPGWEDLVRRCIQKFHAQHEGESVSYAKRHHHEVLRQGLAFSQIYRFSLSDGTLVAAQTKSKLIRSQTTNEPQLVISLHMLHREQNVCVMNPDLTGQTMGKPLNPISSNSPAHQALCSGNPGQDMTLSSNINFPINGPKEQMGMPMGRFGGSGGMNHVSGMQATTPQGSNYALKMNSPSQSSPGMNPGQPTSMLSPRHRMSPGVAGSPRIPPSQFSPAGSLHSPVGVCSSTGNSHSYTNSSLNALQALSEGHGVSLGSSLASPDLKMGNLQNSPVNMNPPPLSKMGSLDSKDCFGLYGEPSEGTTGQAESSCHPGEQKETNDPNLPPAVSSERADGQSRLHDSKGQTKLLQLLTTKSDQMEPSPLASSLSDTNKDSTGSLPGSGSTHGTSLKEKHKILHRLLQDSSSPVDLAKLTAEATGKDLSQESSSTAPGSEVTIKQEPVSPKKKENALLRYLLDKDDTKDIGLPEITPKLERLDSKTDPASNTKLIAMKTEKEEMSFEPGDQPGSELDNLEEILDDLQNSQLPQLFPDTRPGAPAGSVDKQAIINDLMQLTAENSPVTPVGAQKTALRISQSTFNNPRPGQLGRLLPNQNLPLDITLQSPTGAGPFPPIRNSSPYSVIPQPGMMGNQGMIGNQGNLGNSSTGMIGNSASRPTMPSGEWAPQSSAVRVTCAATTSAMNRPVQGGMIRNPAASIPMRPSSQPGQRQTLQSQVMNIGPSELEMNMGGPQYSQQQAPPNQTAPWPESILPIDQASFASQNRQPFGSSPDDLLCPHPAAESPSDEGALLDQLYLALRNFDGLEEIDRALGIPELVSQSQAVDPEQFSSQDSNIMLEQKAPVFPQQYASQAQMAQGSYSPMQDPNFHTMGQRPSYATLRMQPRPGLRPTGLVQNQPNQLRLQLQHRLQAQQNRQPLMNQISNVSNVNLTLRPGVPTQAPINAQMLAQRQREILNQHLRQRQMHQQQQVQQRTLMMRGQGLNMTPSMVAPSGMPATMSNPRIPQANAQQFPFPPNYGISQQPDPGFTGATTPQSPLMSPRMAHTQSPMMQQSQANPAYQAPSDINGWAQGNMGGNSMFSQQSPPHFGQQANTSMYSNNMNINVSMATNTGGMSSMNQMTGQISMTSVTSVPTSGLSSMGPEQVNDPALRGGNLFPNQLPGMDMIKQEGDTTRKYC
# Peroxisome proliferator-activated receptor gamma/Nuclear receptor coactivator 1, sequence (P37231 whole entry): as the sequence (P37231 whole entry) above
# Peroxisome proliferator-activated receptor gamma/Nuclear receptor coactivator 1, sequence (Q15788 whole entry, further chain): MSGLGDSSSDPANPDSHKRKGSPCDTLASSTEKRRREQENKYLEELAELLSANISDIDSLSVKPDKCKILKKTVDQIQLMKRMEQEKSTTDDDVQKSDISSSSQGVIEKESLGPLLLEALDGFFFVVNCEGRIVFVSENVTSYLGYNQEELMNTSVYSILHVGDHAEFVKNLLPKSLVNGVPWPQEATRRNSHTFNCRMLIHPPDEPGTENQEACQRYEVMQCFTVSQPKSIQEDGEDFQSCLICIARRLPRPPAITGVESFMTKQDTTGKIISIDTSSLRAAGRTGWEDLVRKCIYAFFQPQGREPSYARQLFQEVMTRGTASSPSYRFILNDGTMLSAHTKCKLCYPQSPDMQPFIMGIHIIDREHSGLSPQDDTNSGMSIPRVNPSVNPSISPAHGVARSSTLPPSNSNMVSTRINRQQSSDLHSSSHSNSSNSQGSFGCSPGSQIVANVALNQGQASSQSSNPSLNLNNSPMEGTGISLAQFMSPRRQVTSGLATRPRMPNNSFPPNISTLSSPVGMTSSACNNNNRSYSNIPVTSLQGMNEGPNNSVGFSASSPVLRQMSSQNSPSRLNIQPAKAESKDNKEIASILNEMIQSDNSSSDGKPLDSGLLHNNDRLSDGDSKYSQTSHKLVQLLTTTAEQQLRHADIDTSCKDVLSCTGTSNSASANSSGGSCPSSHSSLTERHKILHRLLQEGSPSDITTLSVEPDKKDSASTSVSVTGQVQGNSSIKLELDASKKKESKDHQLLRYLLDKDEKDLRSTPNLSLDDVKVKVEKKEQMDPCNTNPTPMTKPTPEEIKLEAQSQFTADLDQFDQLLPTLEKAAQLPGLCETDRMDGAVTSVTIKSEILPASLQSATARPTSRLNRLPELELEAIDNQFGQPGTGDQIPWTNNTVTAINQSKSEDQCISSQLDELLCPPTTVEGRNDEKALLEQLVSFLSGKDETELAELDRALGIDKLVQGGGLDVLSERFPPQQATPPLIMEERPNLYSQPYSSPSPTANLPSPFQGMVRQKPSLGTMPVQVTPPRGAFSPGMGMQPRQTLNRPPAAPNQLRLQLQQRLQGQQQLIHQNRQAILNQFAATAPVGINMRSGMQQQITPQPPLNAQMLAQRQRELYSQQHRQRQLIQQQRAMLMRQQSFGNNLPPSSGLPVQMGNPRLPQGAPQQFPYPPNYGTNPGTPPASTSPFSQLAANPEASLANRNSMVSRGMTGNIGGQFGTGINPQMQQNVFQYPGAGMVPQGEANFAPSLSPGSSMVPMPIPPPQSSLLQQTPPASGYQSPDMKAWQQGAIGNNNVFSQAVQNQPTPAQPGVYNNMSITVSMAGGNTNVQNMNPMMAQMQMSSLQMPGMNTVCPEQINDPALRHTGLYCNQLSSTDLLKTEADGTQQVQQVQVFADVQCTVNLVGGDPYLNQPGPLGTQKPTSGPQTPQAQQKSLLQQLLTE
# T3 sequence (P41145 whole entry): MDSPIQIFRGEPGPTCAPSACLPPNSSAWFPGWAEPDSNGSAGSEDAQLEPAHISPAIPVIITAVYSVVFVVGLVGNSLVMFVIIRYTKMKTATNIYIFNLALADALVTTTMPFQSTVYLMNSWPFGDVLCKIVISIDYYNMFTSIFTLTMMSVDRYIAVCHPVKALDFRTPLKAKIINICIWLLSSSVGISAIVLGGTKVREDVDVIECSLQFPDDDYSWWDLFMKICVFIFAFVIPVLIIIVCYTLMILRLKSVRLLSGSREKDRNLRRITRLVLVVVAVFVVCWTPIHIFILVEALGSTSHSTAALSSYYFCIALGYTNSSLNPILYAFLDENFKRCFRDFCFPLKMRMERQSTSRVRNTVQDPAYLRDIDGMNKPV
structure (smiles),measurement,setting,value
CCOc1ccc(C(C)C)cc1S(=O)(=O)Nc1cccnc1,IC50,[1],> 100 µM (not active)
same,IC50,[2],3.52 µM (active)
Fc1ccc(COc2cccc(-c3nnc(S)o3)c2)cc1,EC50,[3],9.44 µM (active)
same,EC50,[4],> 79.4 µM (not active)
same,EC50,[5],8.05 µM (active)
O=S(=O)(c1ccc(=S)[nH]c1)N1CCOCC1,IC50,[6],> 100 µM (inactive)
same,IC50,[7],12.6 µM (active)
same,IC50,[8],> 66 µM (inactive)
same,IC50,[9],> 66 µM (inactive)
O=C(NNC(=O)C(c1ccccc1)c1ccccc1)c1ccccn1,IC50,[10],17.5 µM (active)
same,EC50,[11],> 31.5 µM (inactive)
same,IC50,[12],> 32 µM
same,IC50,[13],> 79 µM (inactive)
same,AC50,[14],2.87 µM (active)
same,AC50,[15],5.11 µM (active)
same,AC50,[16],2.52 µM (active)
same,AC50,[17],3.53 µM (active)
same,AC50,[18],0.585 µM (active)
CCOC(=O)C1CCCN(C(=O)c2cc(-c3ccco3)nc3ccccc23)C1 (stereo not given),IC50,[19],6.42 µM (active)
O=C(Cc1cccs1)NCCSc1c(-c2ccc(Cl)cc2)[nH]c2ccccc12,EC50,[3],12.3 µM (inactive)
same,EC50,[4],> 2.94 µM (active)
same,EC50,[5],15.6 µM (not active)
Sc1[nH]cnc2c3ccccc3nc1-2,IC50,[6],> 100 µM (inactive)
same,IC50,[20],> 20 µM (inactive)
same,IC50,[7],3.65 µM (active)
same,IC50,[21],1.5 µM (active)
same,IC50,[22],> 138 µM (inactive)
Cc1ccccc1N(C(=O)c1snc(C(N)=O)c1N)C(C(=O)NC1CCCC1)c1ccco1 (stereo not given),EC50,[23],2.99 µM (active)
CC(C)c1ccc(NC(=S)N(C)CCc2ccccn2)cc1,EC50,[24],5.96 µM (active)
Fc1ccc(C(c2nnnn2Cc2cccs2)N2CCN(C3CCCCC3)CC2)cc1 (stereo not given),EC50,[24],1.19 µM (active)
CC1CCCN(c2c3c(nc4ccccc24)CCCC3)C1 (stereo not given),EC50,[23],1.33 µM (active)
CCCCN(CC)CCNC(=O)c1cc2c(C)nc3ccccc3c2o1,EC50,[24],0.944 µM (active)
c1cncc(-c2nnn[nH]2)c1,IC50,[1],> 100 µM (not active)
same,IC50,[2],> 100 µM (inactive)
Cc1cc(-c2nnc(S)n2/N=C/c2cccc(O)c2)[nH]n1,IC50,[6],> 100 µM (inactive)
same,IC50,[7],2.51 µM (active)
same,IC50,[25],157 µM (active)
Cc1nn(-c2ccccc2)c(C)c1/C=N/n1c(S)nnc1-c1ccncc1,CC50,[26],> 50 µM (active)
same,IC50,[6],> 100 µM (inactive)
same,IC50,[7],2.75 µM (active)
COC(=O)c1sccc1-c1ccc(/C=N/OC(=O)c2ccccc2)o1,EC50,[3],12.2 µM (inactive)
same,EC50,[4],> 79.4 µM (not active)
same,EC50,[5],12.7 µM (not active)
COc1ccc(/C(C)=N/NC(=O)CNC(=O)/C=C\c2ccco2)cc1,IC50,[27],6.67 µM (active)
Cc1cc(N/N=C/c2ccccc2F)c2ccccc2n1,EC50,[23],2.66 µM (active)
